The target in one assay is T1, Human thrombin (Homo sapiens, UniProt P00734).
T1 construct: Human thrombin stock solution; purchased Enzyme Research Lab
Briefly: In vitro chromogenic assay for thrombin (S2302 cleavage). It is filed as biochemical. The note with it: assay buffer pH 7.5, ambient temperature; read-out: Km (substrate concentration equal to Km). On the procedure:
(§1) The activities were determined as an initial rate of cleavage of the peptide p-nitroanilide by the enzyme. The cleavage product, p-nitroaniline, absorbs at 405 nm with a molar extinction coefficient of 9920M^-1 cm^-1.
(§2) 50 mM TrisHCl, 150 mM NaCl, 2.5 mM CaCl2, and 0.1% polyethylene glycol 6000, pH 7.5.
2. Human thrombin stock solution: Stored at -80° C. (working solution (2×): 1200 ng/mL or 40 nM in assay buffer, prepare prior to use).
1. S2222 (FXa assay) stock solution: 6 mM in dH2 O, store at 4° C. (working solution (4×): 656 μM in assay buffer). p1 2. S2302 (Thrombin assay) stock solution: 10 mM in dH2 O, stored at 4° C. (working solution (4×): 1200 μM in assay buffer).
Assays were performed in 96-well microtiter plates in a total volume of 200 μl. […] Concentrations of the standard inhibitor compound in the assay were from 5 μM to 0.021 μM in 1 to 3 dilution. Concentration of the test compounds in the assay typically were from 10 μM to 0.041 μM in 1 to 3 dilution. […]
(§3) The enzyme kinetics were measured at 405 nm, at 10 seconds interval, for five minutes in a THERMOmax plate reader at ambient temperature.
Enzyme rates were calculated as mOD/min based on the first two minutes readings. The IC50 values were determined by fitting the data to the log-logit equation (linear) or the Morrison equation (non-linear) with an EXCEL spread-sheet. […]

Assay [1] concerns the target T2, Human tissue plasminogen activator (tPA) (Two chains, Sigma) (Homo sapiens, UniProt P00750).
T2 construct: (tPA) (Two chains, Sigma); purchased Sigma
Briefly: In vitro chromogenic assay for tissue plasminogen activator (S2288 cleavage). It is filed as biochemical. The settings on record: assay buffer pH 7.5, ambient temperature; read-out: Km (substrate concentration equal to Km). On the procedure:
as §1, §2
3. Human tissue plasminogen activator (tPA) (Two chains, Sigma) stock solution: 1 mg/mL, stored at -80° C. (working solution (2×): 1361 ng/mL in assay buffer, prepare prior to use).
3. S2288 (tPA assay) stock solution: 10 mM in dH2 O, stored at 4° C. (working solution (4×): 1484 μM in assay buffer). (All substrate working solutions were prepared on assay […].)
Assays were performed in 96-well microtiter plates in a total volume of 200 μl. […] Concentrations of the standard inhibitor compound in the assay were from 5 μM to 0.021 μM in 1 to 3 dilution. Concentration of the test compounds in the assay typically were from 10 μM to 0.041 μM in 1 to 3 dilution. For potent test compounds, the concentrations used in the factor Xa assay were further diluted 100 fold (100 nM to 0.41 nM) or 1000 fold (10 nM to 0.041 nM). All substrate concentrations used are equal to their Km values under the present assay conditions. Assays were performed at ambient temperature. […]
as §3

Residues, ends and D or L forms follow the SMILES beside them.

T2 sequence (P00750 311-562 limits assumed): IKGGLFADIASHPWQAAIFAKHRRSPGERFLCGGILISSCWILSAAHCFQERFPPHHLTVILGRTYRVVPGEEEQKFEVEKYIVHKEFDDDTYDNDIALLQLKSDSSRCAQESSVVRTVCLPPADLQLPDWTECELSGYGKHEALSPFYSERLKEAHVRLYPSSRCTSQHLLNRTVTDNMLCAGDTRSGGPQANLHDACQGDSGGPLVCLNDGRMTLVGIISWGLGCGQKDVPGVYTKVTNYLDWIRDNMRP
T2 sequence (P00750 36-310 partner limits assumed): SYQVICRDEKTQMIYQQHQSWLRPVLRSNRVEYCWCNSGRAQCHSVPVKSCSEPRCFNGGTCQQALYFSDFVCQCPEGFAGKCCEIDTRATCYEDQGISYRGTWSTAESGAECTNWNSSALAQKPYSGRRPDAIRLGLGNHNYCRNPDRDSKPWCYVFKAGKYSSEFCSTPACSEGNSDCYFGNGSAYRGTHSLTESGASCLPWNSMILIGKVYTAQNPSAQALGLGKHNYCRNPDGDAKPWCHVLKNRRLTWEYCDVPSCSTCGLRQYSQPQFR

Regarding `N=C(N)NCCC[C@H](NC(=O)[C@H](Cc1ccccc1)NC(=O)[C@H]1CCCN1)C(=O)Nc1ccc([N+](=O)[O-])cc1` [Example S2302] (HELM PEPTIDE1{[dP].F.R.[O=[N+]([O-])c1ccc(N[*:1])cc1]}$$$$V2.0), on Human thrombin, the Km is 300 µM.

With `CC[C@@H](C)[C@@H](N)C(=O)N1CCC[C@H]1C(=O)N[C@@H](CCCN=C(N)N)C(=O)Nc1ccc([N+](=O)[O-])cc1` [Example S2288] (HELM PEPTIDE1{[dI].P.R.[O=[N+]([O-])c1ccc(N[*:1])cc1]}$$$$V2.0), in assay [1], the Km was determined as 371 µM.

The values are drawn from patent publication US5612363A, “N,N-di(aryl) cyclic urea derivatives as anti-coagulants” (Berlex Laboratories, Inc., priority 1995, dated 1997).
